Patent EP2253266A1, “Method for treating patients with cerebral calcifications” (Assistance Publique - Hôpitaux de Paris, priority 2009, dated 2010)

Key:
[1] = system: patients having diffuse cerebral calcifications; assay: Clinical response to treatment of patients with cerebral calcifications and cerebral folate deficiency (global disability score, subjective evaluations, neurological examination, serial videos); type: in vivo, humans; parameters: key to Global score after treatment: 1: Autonomous for all activities of daily living; 2: can walk at least 100 meters alone, needs help for few activities of daily living; 3: can walk unaided about 10 meters, needs help for many activities of daily living; 4: can not walk alone, needs aid for most activities of daily living; settings: for Global score after treatment: global score before treatment 3
Text: Three patients having diffuse cerebral calcifications involving the basal ganglia, cerebellar dentate nuclei, white matter and in one patient the occipital cortex (Table 3) were studied. These neuroradiological findings were indistinguishable from Fahr's Syndrome (IBGC MIM # 114100, # 213600). […] Autonomous for all activities of daily living • 2: can walk at least 100 meters alone, needs help for few activities of daily living • 3: can walk unaided about 10 meters, needs help for many activities of daily living • 4: can not walk alone, needs aid for most activities of daily living. The clinical response to treatment was judged based on the patient's, patient's family, nurses and neurologist subjective evaluations, neurological examination and serial videos. A global disability score was designed to evaluate clinical severity and evolution (see table 3 legend). Table 4: Effect of treatments

[2] = quoted from WO 2006/119589; cited from earlier work
[3] = quoted from WO 2006/119589; cited from earlier work; remark: listed apart in the source

SMILES	other treatments leading to less or only transient improvement ([1]; patient #1, IVIg 0.4gr/kgX5d every 6weeks)	other treatments leading to less or only transient improvement ([1]; patient #3, Calcium folinate 75 mg/d)	Global score after treatment ([1]; patient #1, MTHF 2 mg/kg/d, treatment duration 2 years ½)	Global score after treatment ([1]; patient #2, MTHF 2 mg/kg/d, treatment duration 14 months)	Global score after treatment ([1]; patient #3, MTHF 1.5 mg/kg/d, treatment duration 1 year)	toxicity studies [2]	bio-availability [3]
Nc1nc2c(c(=O)[nH]1)N(C=O)C(CNc1ccc(C(=O)N[C@@H](CCC(=O)O)C(=O)O)cc1)CN2 (stereo partly shown) [Calcium folinate, 5-formyltetrahydrofolic acid]	Calcium folinate led to marked initial impro-vement that waned after 6 months. IVIg (0.4gr/kgX5d every 6weeks) led to improvement of walking during 4 months	Calcium folinate 75 mg/d: same effect than MTHF	–	–	–	–	–
CN1c2c(nc(N)[nH]c2=O)NCC1CNc1ccc(C(=O)NC(CCC(=O)O)C(=O)O)cc1 (stereo not shown) [MTHF, 5-methyltetrahydrofolate]	–	–	2	3	2	no adverse effects	high bio-availability
